The values below come from ChEMBL document CHEMBL1201862, “PubChem BioAssay data set” (2004).

Among the test systems are M14; SK-MEL-2; UACC-62; OVCAR-4; MDA-N; K562; A498; Malme-3M; ACHN; UACC-257; RXF 393; MDA-MB-231; KM12; 786-0; NCI-H23; HOP-62; COLO 205; MDA-MB-435; EKVX; HOP-92.
Holding throughout (test): inhibition of tumour cell growth, NCI panel, 48 h

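Briefly, cells in 96-well plates were exposed to five compound concentrations for 48 h, and endpoints were estimated by linear interpolation. GI50 is the concentration that inhibits growth by half.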 The source made the active and inactive calls. Rule as the data show it: active = GI50 up to about 1.1 µM and inactive = higher.

Consider `O=C1[C@H](c2ccccc2)C2c3ccccc3CCN12` (some centres not stated), for which the GI50 with M14, with SK-MEL-2, in the experiment on UACC-62, in the experiment with OVCAR-4, in the experiment with MDA-N and in the experiment on K562 was > 10 µM (inactive) throughout. Further, the GI50 in the experiment on A498 was > 10 µM (inactive); with Malme-3M it was 0.897 µM (active); with ACHN it was > 10 µM (inactive); in the experiment on UACC-257, > 10 µM (inactive); in the experiment with RXF 393, > 10 µM (inactive); in the experiment with MDA-MB-231, > 10 µM (inactive). For the same compound, the GI50 with KM12, with 786-0, with NCI-H23, in the experiment on HOP-62, with COLO 205 and in the experiment with MDA-MB-435 was > 10 µM (inactive) throughout. For the same compound, the GI50 in the experiment on EKVX was > 10 µM (inactive).

In the case of `CCCCCCCCCCCC[C@@H](O)[C@H]1CC[C@H]([C@H]2CC[C@H]([C@H](O)CC[C@H](O)CCCCCCCC3=C[C@H](C)OC3=O)O2)O1`, the GI50 with M14 is 1.64 µM (inactive); in the experiment with SK-MEL-2, 1.52 µM (inactive); in the experiment on UACC-62 it was 1.02 µM (active); in the experiment on MDA-N, 1.9 µM (inactive); in the experiment with K562 it was 1.05 µM (active); in the experiment with A498 it was 2.52 µM (inactive). Also, the GI50 is 0.0933 µM (active) in the experiment with ACHN; 0.136 µM (active) with UACC-257; 2.16 µM (inactive) with HOP-92; 2.12 µM (inactive) in the experiment on RXF 393; 2.62 µM (inactive) in the experiment on MDA-MB-231; 1.44 µM (inactive) in the experiment on KM12. In addition, the GI50 in the experiment with 786-0 is 2.4 µM (inactive); in the experiment on NCI-H23, 0.0201 µM (active); with HOP-62, 1.57 µM (inactive); with COLO 205, 1.86 µM (inactive); with MDA-MB-435 it was 1.77 µM (inactive); with EKVX it was 1.1 µM (active).

In the case of `CSc1c(C(=O)Nc2ccccc2)c(N)n(N)c(=O)c1C#N`, the GI50 in the experiment on M14, in the experiment with SK-MEL-2, with UACC-62, in the experiment with OVCAR-4, with MDA-N and in the experiment on K562 was > 100 µM (inactive) throughout. The GI50 with A498 was 30.5 µM (inactive); in the experiment with Malme-3M, > 100 µM (inactive); with UACC-257, > 100 µM (inactive); in the experiment on RXF 393 it was > 100 µM (inactive); in the experiment with MDA-MB-231 it was > 100 µM (inactive); in the experiment on KM12, > 100 µM (inactive). In addition, the GI50 in the experiment on 786-0, with NCI-H23, in the experiment on COLO 205, in the experiment with MDA-MB-435 and with EKVX was > 100 µM (inactive) in each case.

As to `Cc1cc2c(cc1Cl)SC(NN(C)C)=NS2(=O)=O`, the GI50 with M14, in the experiment with SK-MEL-2, in the experiment with UACC-62, in the experiment with OVCAR-4, in the experiment on MDA-N and with K562 was > 10 µM (inactive) in each case. The GI50 in the experiment on A498, with Malme-3M, with ACHN, in the experiment with UACC-257, in the experiment on RXF 393 and in the experiment with MDA-MB-231 was > 10 µM (inactive) throughout. Besides, the GI50 with KM12, in the experiment with 786-0, with NCI-H23, in the experiment on HOP-62, with COLO 205 and in the experiment on MDA-MB-435 was > 10 µM (inactive) throughout. The GI50 with EKVX is > 10 µM (inactive).

With `COC(=O)Cc1ccc2c(cnn2-c2ccccc2)c1OC`, the GI50 with M14, in the experiment on SK-MEL-2, in the experiment with UACC-62, in the experiment with OVCAR-4, in the experiment with MDA-N and in the experiment on K562 was > 10 µM (inactive) each time. Also, the GI50 in the experiment with A498, with Malme-3M, in the experiment with ACHN, in the experiment with UACC-257, with RXF 393 and with MDA-MB-231 was > 10 µM (inactive) throughout. Besides, the GI50 in the experiment on KM12, with 786-0, in the experiment on NCI-H23, in the experiment with HOP-62, in the experiment on COLO 205 and with MDA-MB-435 was > 10 µM (inactive) each time. In the experiment on EKVX, the GI50 is 9.75 µM (inactive).

In the case of `O=C1c2cc([N+](=O)[O-])ccc2NC2C(O)c3ccccc3N12` (configuration not stated), the GI50 in the experiment with M14 was 47.4 µM (inactive); in the experiment with SK-MEL-2, 33.3 µM (inactive); with UACC-62 it was 3.45 µM (inactive); with OVCAR-4, 19.7 µM (inactive); with MDA-N, 69.5 µM (inactive); in the experiment on K562, 22.2 µM (inactive). Moreover, the GI50 in the experiment with A498 is 18.3 µM (inactive); with ACHN, 24.7 µM (inactive); in the experiment with UACC-257 it was 16 µM (inactive); in the experiment with HOP-92 it was 23.9 µM (inactive); in the experiment with RXF 393, 16.9 µM (inactive); in the experiment on MDA-MB-231, 31.6 µM (inactive). Moreover, the GI50 in the experiment with KM12 is 42.7 µM (inactive); in the experiment with 786-0, 25.2 µM (inactive); with NCI-H23, 24.3 µM (inactive); in the experiment on HOP-62, 30.1 µM (inactive); in the experiment with COLO 205, 61.8 µM (inactive); in the experiment on MDA-MB-435 it was 52.8 µM (inactive). Also, the GI50 in the experiment with EKVX was 0.619 µM (active).

Consider `Cc1cc(OP2(=O)NCc3ncccc3O2)ccc1Cl` (configuration not stated), for which the GI50 with M14 was > 100 µM (inactive); in the experiment on SK-MEL-2, > 100 µM (inactive); with UACC-62, > 100 µM (inactive); in the experiment with OVCAR-4, > 100 µM (inactive); in the experiment on MDA-N, > 100 µM (inactive); in the experiment on K562, 84.5 µM (inactive). In addition, the GI50 in the experiment on A498, in the experiment with ACHN, in the experiment on UACC-257, in the experiment with HOP-92, with RXF 393 and in the experiment on MDA-MB-231 was > 100 µM (inactive) in each case. Besides, the GI50 in the experiment with KM12 is 58.5 µM (inactive); in the experiment on 786-0 it was > 100 µM (inactive); in the experiment on NCI-H23 it was > 100 µM (inactive); in the experiment with HOP-62, > 100 µM (inactive); with COLO 205, > 100 µM (inactive); in the experiment with MDA-MB-435, > 100 µM (inactive). Also, in the experiment with EKVX, the GI50 is > 100 µM (inactive).

Consider `CC(C)(C)c1ccc2c(c1)C#Cc1cc(C(C)(C)C)ccc1OCCCO2`, for which the GI50 in the experiment with M14, in the experiment with SK-MEL-2, in the experiment on UACC-62, with OVCAR-4, in the experiment with MDA-N and in the experiment on K562 was > 100 µM (inactive) throughout. In addition, the GI50 in the experiment on A498, in the experiment on Malme-3M, with ACHN, with UACC-257, in the experiment on RXF 393 and in the experiment with MDA-MB-231 was > 100 µM (inactive) each time. Besides, the GI50 with KM12, in the experiment on 786-0, in the experiment on NCI-H23, in the experiment with HOP-62, in the experiment on COLO 205 and with MDA-MB-435 was > 100 µM (inactive) in each case. For the same compound, in the experiment on EKVX, the GI50 is > 100 µM (inactive).

`O=C1C(O)=C(CCCCCCCCC2CCCCC2)C(=O)c2ccccc21` [MENOCTONE]: the GI50 in the experiment on M14 was 10.8 µM (inactive); in the experiment on SK-MEL-2 it was 11.8 µM (inactive); with UACC-62 it was 6.05 µM (inactive); in the experiment with OVCAR-4 it was 16.5 µM (inactive); in the experiment with MDA-N, 4.75 µM (inactive); with K562, 2.51 µM (inactive). The GI50 with Malme-3M is 1.3 µM (inactive); with ACHN, 2.93 µM (inactive); with UACC-257, 6.28 µM (inactive); with HOP-92, 10 µM (inactive); in the experiment with MDA-MB-231, 4.56 µM (inactive); in the experiment on KM12, 8.49 µM (inactive). Further, the GI50 in the experiment on 786-0 was 6.01 µM (inactive); with NCI-H23, 3.33 µM (inactive); in the experiment with HOP-62 it was 11.6 µM (inactive); in the experiment with COLO 205 it was 8.45 µM (inactive); in the experiment with MDA-MB-435, 4.99 µM (inactive); with EKVX, 4.55 µM (inactive).

For the compound `CCOC(=O)/C=C(/C(=O)OCC)n1ccc(=O)n(Cc2cn(COCCOC(C)=O)nn2)c1=O`, the GI50 is 25.2 µM (inactive) in the experiment with SK-MEL-2; 18.3 µM (inactive) in the experiment with UACC-62; 22.9 µM (inactive) in the experiment with OVCAR-4; 50 µM (inactive) in the experiment on MDA-N; 19.1 µM (inactive) with K562; 20.5 µM (inactive) in the experiment with A498. Also, the GI50 in the experiment on ACHN was 14.8 µM (inactive); with UACC-257, 19.3 µM (inactive); in the experiment with HOP-92 it was 1.53 µM (inactive); with RXF 393, 25.6 µM (inactive); in the experiment with MDA-MB-231 it was 28.8 µM (inactive); in the experiment with KM12 it was 15.5 µM (inactive). The GI50 in the experiment with 786-0 is 21.7 µM (inactive); with NCI-H23, 20.7 µM (inactive); with HOP-62 it was > 100 µM (inactive); in the experiment on COLO 205, 4.91 µM (inactive); with MDA-MB-435 it was 17.9 µM (inactive); in the experiment with EKVX, 16.9 µM (inactive).

For `CCOC(=O)CN1CCNCCN(CC(=O)OCC)CCNCC1`, the GI50 with SK-MEL-2 is > 100 µM (inactive); with UACC-62, > 100 µM (inactive); in the experiment on OVCAR-4, > 100 µM (inactive); in the experiment with MDA-N it was > 100 µM (inactive); in the experiment on K562 it was 80.5 µM (inactive); with A498, > 100 µM (inactive). Besides, the GI50 with ACHN, in the experiment on UACC-257, with HOP-92, in the experiment on RXF 393, with MDA-MB-231 and in the experiment with KM12 was > 100 µM (inactive) throughout. Further, the GI50 in the experiment on 786-0, in the experiment with HOP-62, in the experiment with COLO 205, in the experiment with MDA-MB-435 and with EKVX was > 100 µM (inactive) each time.
